Laboratory results: patent publication US20230002359A1, “PESTICIDALLY ACTIVE FUSED BICYCLIC HETEROAROMATIC COMPOUNDS” (priority 2019, published 2023)

Experiments:
Format in all cases: in vivo
[1] = test system: Plutella xylostella (Diamond Back Moth); experiment: Example B4: Plutella xylostella (diamond back moth), artificial diet, eggs, 24-well; details: 192 h, application rate of 200 ppm, 8 days after infestation, eggs, read-out: control in at least one of the two categories (mortality or growth inhibition)
Procedure: 24-well microtiter plates with artificial diet were treated with aqueous test solutions prepared from 10′000 ppm DMSO stock solutions by pipetting. After drying, Plutella eggs were pipetted through a plastic stencil onto a gel blotting paper and the plate was closed with it. The samples were assessed for mortality and growth inhibition in comparison to untreated samples 8 days after infestation.

[2] = test system: Spodoptera littoralis (Egyptian Cotton Leaf Worm); experiment: Example B7: Spodoptera littoralis (Egyptian cotton leaf worm), cotton leaf discs sprayed, L1 larvae; details: foliar, 72 h, application rate of 200 ppm, 3 days after infestation, L1 larvae, read-out: control in at least one of the three categories (mortality, anti-feedant effect, or growth inhibition)
Procedure, shortened: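 Five L1 larvae per sprayed, dried cotton leaf disc on agar. Activity is counted when mortality, anti-feedant effect or growth inhibition exceeds the untreated sample at day 3.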

[3] = test system: Euschistus heros (Neotropical Brown Stink Bug); experiment: Example B2: Euschistus heros (neotropical brown stink bug), soybean leaves sprayed, N2 nymphs; details: 120 h, application rate of 200 ppm, 5 days after infestation, N2 nymphs, read-out: control in at least one of the two categories (mortality or growth inhibition)
Procedure: Soybean leaves on agar in 24-well microtiter plates were sprayed with aqueous test solutions prepared from 10′000 ppm DMSO stock solutions. After drying the leaves were infested with N2 nymphs. The samples were assessed for mortality and growth inhibition in comparison to untreated samples 5 days after infestation.

[4] = test system: Diabrotica Balteata (Corn Root Worm); experiment: Example B1: Diabrotica balteata (corn root worm), maize sprouts sprayed, L2 larvae; details: 96 h, application rate of 200 ppm, 4 days after infestation, L2 larvae, read-out: control in at least one of the two categories (mortality or growth inhibition)
Procedure, shortened: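 Read-out is mortality plus growth inhibition relative to untreated controls, assessed 4 days after infestation. Sprouts resting on agar are sprayed with aqueous solutions derived from 10′000 ppm DMSO stocks and left to dry before L2 larvae (6 to 10 per well) are added.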

[5] = test system: Chilo suppressalis (Striped Rice Stemborer); experiment: Example B3: Chilo suppressalis (striped rice stemborer), artificial diet, L2 larvae; details: 144 h, application rate of 200 ppm, 6 days after infestation, L2 larvae, read-out: control in at least one of the three categories (mortality, anti-feedant effect, or growth inhibition)
Procedure, shortened: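 First, artificial diet was treated with aqueous solutions prepared from 10'000 ppm DMSO stocks; second, after drying, L2 larvae (6-8/well) were added; third, effects were assessed at 6 days against untreated controls, counting control when any of three categories was higher.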

[6] = test system: Myzus persicae (Green Peach Aphid); experiment: Example B6: Myzus persicae (green peach aphid) intrinsic activity, sucrose solution; details: 120 h, test rate of 12 ppm, 5 days after infestation, intrinsic activity, read-out: mortality
Procedure: Test compounds prepared from 10′000 ppm DMSO stock solutions were applied by pipette into 24-well microtiter plates and mixed with sucrose solution. The plates were closed with a stretched Parafilm. A plastic stencil with 24 holes was placed onto the plate and infested pea seedlings were placed directly on the Parafilm. The infested plate was closed with a gel blotting paper and another plastic stencil and then turned upside down. The samples were assessed for mortality 5 days after infestation.

COCN(c1ncnc2c(C(F)(F)F)cc(C(F)(F)F)cc12)C(C)c1ncnn1-c1ccc(C#N)cn1 (stereo not shown) [P.7, 6-[5-[1-[[6,8-bis(trifluroomethyl)quina-zolin-4-yl]-(methoxymethyl)amino]ethyl]-1,2,4-triazol-1-yl]pyridine-3-carbonitrile]
≥ 80%: percent control (mortality or growth inhibition) at 200 ppm [1] | percent control (mortality, anti-feedant effect or growth inhibition) at 200 ppm [2] | percent control (mortality or growth inhibition) at 200 ppm [3] | percent control (mortality or growth inhibition) at 200 ppm [4] | percent control (mortality, anti-feedant effect or growth inhibition) at 200 ppm [5]

COc1nc(N(CC2CC2)C(C)c2ncnn2-c2ncccn2)c2cc(C(F)(F)F)cc(Cl)c2n1 (stereo not shown) [P.36, 8-chloro-N-(cyclopropylmethyl)-2-methoxy-N-[1-(2-pyrimidin-2-yl-1,2,4-triazol-3-yl)ethyl]-6-(trifluoromethyl)quinazolin-4-amine]
≥ 80%: percent control (mortality or growth inhibition) at 200 ppm [3] | percent control (mortality or growth inhibition) at 200 ppm [4]

CC(Nc1ncnc2c(Cl)cc(C(F)(F)F)cc12)c1ncnn1-c1ncccn1 (stereo not shown) [P.43, 8-chloro-N-[1-(2-pyrimidin-2-yl-1,2,4-triazol-3-yl)ethyl]-6-(trifluoromethyl)quinazolin-4-amine]
≥ 80%: percent control (mortality or growth inhibition) at 200 ppm [1] | percent control (mortality or growth inhibition) at 200 ppm [3] | percent control (mortality or growth inhibition) at 200 ppm [4] | percent control (mortality, anti-feedant effect or growth inhibition) at 200 ppm [5]

CC(c1nccnc1-n1nccn1)N(CC1CC1)c1ncnc2c(C(F)(F)F)cc(C(F)(F)F)cc12 (stereo not shown) [P.75, N-(cyclopropylmethyl)-N-[1-[3-(triazol-2-yl)pyrazin-2-yl]ethyl]-6,8-bis(trifluoromethyl)quina-zolin-4-amine]
≥ 80%: percent control (mortality or growth inhibition) at 200 ppm [1] | percent control (mortality or growth inhibition) at 200 ppm [3] | percent control (mortality or growth inhibition) at 200 ppm [4] | percent control (mortality, anti-feedant effect or growth inhibition) at 200 ppm [5]

CC(c1nccnc1-n1nccn1)N(CC1CC1)c1ncnc2c(C(F)(F)F)cc(Br)cc12 (stereo not shown) [P.78, 6-bromo-N-(cyclopropylmethyl)-N-[1-[3-(triazol-2-yl)pyrazin-2-yl]ethyl]-8-(trifluoromethyl)quinazolin-4-amine]
≥ 80%: percent control (mortality or growth inhibition) at 200 ppm [1] | percent control (mortality or growth inhibition) at 200 ppm [3] | percent control (mortality or growth inhibition) at 200 ppm [4] | percent control (mortality, anti-feedant effect or growth inhibition) at 200 ppm [5]

CC(Nc1nccc2c(C(F)(F)F)cc(C(F)(F)F)cc12)c1ncnn1-c1ncccn1 (stereo not shown) [P.83, N-[1-(2-pyrimidin-2-yl-1,2,4-triazol-3-yl)ethyl]-5,7-bis(trifluoromethyl)isoquinolin-1-amine]
≥ 80%: percent control (mortality or growth inhibition) at 200 ppm [1] | percent control (mortality or growth inhibition) at 200 ppm [3] | percent control (mortality or growth inhibition) at 200 ppm [4] | percent control (mortality, anti-feedant effect or growth inhibition) at 200 ppm [5]

CC(c1ncnn1-c1ncc(Br)cn1)N(C)c1ncnc2c(C(F)(F)F)cc(C(F)(F)F)cc12 (stereo not shown) [P.89, N-[1-[2-(5-bromopyrimidin-2-yl)-1,2,4-triazol-3-yl]ethyl]-N-methyl-6,8-bis(trifluoromethyl)quina-zolin-4-amine]
≥ 80%: percent control (mortality or growth inhibition) at 200 ppm [1] | percent control (mortality or growth inhibition) at 200 ppm [3] | percent control (mortality or growth inhibition) at 200 ppm [4] | percent control (mortality, anti-feedant effect or growth inhibition) at 200 ppm [5]

C[C@H](Nc1ncnc2c(C(F)(F)F)cc(I)cc12)c1nccnc1-c1ccc(C#N)cn1 [P.162, 6-[3-[(1S)-1-[[6-iodo-8-(trifluoromethyl)quinazolin-4-yl]amino]ethyl]pyrazin-2-yl]pyridine-3-carbonitrile]
≥ 80%: mortality at 12 ppm [6] | percent control (mortality or growth inhibition) at 200 ppm [1] | percent control (mortality, anti-feedant effect or growth inhibition) at 200 ppm [2] | percent control (mortality or growth inhibition) at 200 ppm [4] | percent control (mortality, anti-feedant effect or growth inhibition) at 200 ppm [5]

CC(Nc1ncnc2c(Br)cc(Cl)cc12)c1ncnn1-c1ncccn1 (stereo not shown) [P.171, 8-bromo-6-chloro-N-[1-(2-pyrimidin-2-yl-1,2,4-triazol-3-yl)ethyl]quinazolin-4-amine]
≥ 80%: mortality at 12 ppm [6] | percent control (mortality or growth inhibition) at 200 ppm [1] | percent control (mortality, anti-feedant effect or growth inhibition) at 200 ppm [2] | percent control (mortality or growth inhibition) at 200 ppm [4] | percent control (mortality, anti-feedant effect or growth inhibition) at 200 ppm [5]

Cc1cnc(-c2ccc(C#N)cn2)c([C@H](C)N(C)c2ncnc3c(C(F)(F)F)cc(C(F)(F)F)cc23)n1 [P.175, 6-[3-[(1S)-1-[[6,8-bis(trifluoromethyl)quina-zolin-4-yl]-methyl-amino]ethyl]-5-methyl-pyraizn-2-yl]pyridine-3-carbonitrile]
≥ 80%: percent control (mortality or growth inhibition) at 200 ppm [1] | percent control (mortality or growth inhibition) at 200 ppm [3] | percent control (mortality or growth inhibition) at 200 ppm [4] | percent control (mortality, anti-feedant effect or growth inhibition) at 200 ppm [5]

C[C@@H](c1ncnn1-c1ccc(C#N)cn1)N(C)c1ncnc2c(C(F)(F)F)cc(C3CC3)cc12 [P.177, 6-[5-[(1S)-1-[[6-cyclopropyl-8-(trifluoromethyl)quinazolin-4-yl]-methyl-amino]ethyl]-1,2,4-triazol-1-yl]pyridine-3-carbonitrile]
≥ 80%: mortality at 12 ppm [6] | percent control (mortality or growth inhibition) at 200 ppm [1] | percent control (mortality, anti-feedant effect or growth inhibition) at 200 ppm [2] | percent control (mortality or growth inhibition) at 200 ppm [4] | percent control (mortality, anti-feedant effect or growth inhibition) at 200 ppm [5]

CC(Nc1ncnc2c(Br)cc(Cl)cc12)c1nccnc1-c1ncccn1 (stereo not shown) [P.183, 8-bromo-6-chloro-N-[1-(3-pyrimidin-2-ylpyrazin-2-yl)ethyl]quinazolin-4-amine]
≥ 80%: mortality at 12 ppm [6] | percent control (mortality or growth inhibition) at 200 ppm [1] | percent control (mortality, anti-feedant effect or growth inhibition) at 200 ppm [2] | percent control (mortality or growth inhibition) at 200 ppm [4] | percent control (mortality, anti-feedant effect or growth inhibition) at 200 ppm [5]

CC(c1ncnn1-c1ccc(OC(F)F)cn1)N(C)c1ncnc2c(C(F)(F)F)cc(Br)cc12 (stereo not shown) [P.194, 6-bromo-N-[1-[2-[5-(difluoromethoxy)-2-pyridyl]-1,2,4-triazol-3-yl]ethyl]-N-methyl-8-(trifluoromethyl)quinazolin-4-amine]
≥ 80%: mortality at 12 ppm [6] | percent control (mortality or growth inhibition) at 200 ppm [1] | percent control (mortality, anti-feedant effect or growth inhibition) at 200 ppm [2] | percent control (mortality or growth inhibition) at 200 ppm [4] | percent control (mortality, anti-feedant effect or growth inhibition) at 200 ppm [5]

C[C@@H](c1ncnn1-c1ncccn1)N(C)c1ncnc2c(C(F)(F)F)cc(Br)cc12 [P.208, 6-bromo-N-methyl-N-[(1S)-1-(2-pyrimidin-2-yl-1,2,4-triazol-3-yl)ethyl]-8-(trifluoromethyl)quinazolin-4-amine]
≥ 80%: mortality at 12 ppm [6] | percent control (mortality or growth inhibition) at 200 ppm [1] | percent control (mortality, anti-feedant effect or growth inhibition) at 200 ppm [2] | percent control (mortality or growth inhibition) at 200 ppm [4] | percent control (mortality, anti-feedant effect or growth inhibition) at 200 ppm [5]

CC(Nc1ncnc2c(Br)cc(OC(F)(F)F)cc12)c1ncnn1-c1ncccn1 (stereo not shown) [P.229, 8-bromo-N-[1-(2-pyrimidin-2-yl-1,2,4-triazol-3-yl)ethyl]-6-(trifluoromethoxy)quinazo-line-4-amine]
≥ 80%: mortality at 12 ppm [6] | percent control (mortality or growth inhibition) at 200 ppm [1] | percent control (mortality, anti-feedant effect or growth inhibition) at 200 ppm [2] | percent control (mortality or growth inhibition) at 200 ppm [4] | percent control (mortality, anti-feedant effect or growth inhibition) at 200 ppm [5]

CC(c1ncnn1-c1ccc(C#N)cn1)N(C)c1ncnc2c(OC(F)F)cc(Br)cc12 (stereo not shown) [P.230, 6-[5-[1-[[6-bromo-8-(difluoromethoxy)quinazo-lin-4-yl]-methyl-amino]ethyl]-1,2,4-triazol-1-yl]pyridine-3-carbonitrile]
≥ 80%: mortality at 12 ppm [6] | percent control (mortality or growth inhibition) at 200 ppm [1] | percent control (mortality, anti-feedant effect or growth inhibition) at 200 ppm [2] | percent control (mortality or growth inhibition) at 200 ppm [4] | percent control (mortality, anti-feedant effect or growth inhibition) at 200 ppm [5]

CC(Nc1ncnc2c(OC(F)F)cc(Br)cc12)c1ncnn1-c1ncccn1 (stereo not shown) [P.243, 6-bromo-8-(difluoromethoxy)-N-[1-(2-pyrimidin-2-yl-1,2,4-triazol-3-yl)ethyl]quinazolin-4-amine]
≥ 80%: mortality at 12 ppm [6] | percent control (mortality or growth inhibition) at 200 ppm [1] | percent control (mortality, anti-feedant effect or growth inhibition) at 200 ppm [2] | percent control (mortality or growth inhibition) at 200 ppm [4] | percent control (mortality, anti-feedant effect or growth inhibition) at 200 ppm [5]
